One assay concerns Rhizoctonia solani. In words: Mycelial growth test. Type of assay: cell-based. The settings on record: Rhizoctonia solani, 72 h, RS, read-out: Percent Fungus Growth Inhibition. The text has this: | RS = Rhizoctonia solani
Assay [1] deals with Erysiphe polygoni. Put plainly: whole plant or invertebrate. To be noted: foliar, 24 h, read-out: Percent Disease Control, curative, bean powdery mildew.
The subject of assay [2] is Erysiphe polygoni. In words: Spore germination test. Type of assay: cell-based. The settings on record: EP, 48 hours. The procedure, abridged:
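Compound was delivered in acetone into water agar at final 40, 10, 2.5 and 1 ppm. Alternaria solani and Botrytis cinerea spores were applied as sterile-water suspensions, while Erysiphe polygoni and Uromyces phaseoli spores were brushed on from infected leaves. After 48 h at 24° C., percentage germination was converted to a rating.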

These results are taken from patent US4450269A, “Mono-5-substituted-3-chloro-4H-1,2,6-thiadiazin-4-one antifungal agents” (FMC Corporation, priority 1980, dated 1984).

For orientation: inhibition means the share of the control response that was lost under treatment. For `Cc1cc(Cl)ccc1Oc1nsnc(Cl)c1=O` [Compound 55, 3-chloro-5-(4-chloro-2-methylphenoxy)-4H--1,2,6-thiadiazin-4-one], in the assay on Rhizoctonia solani, the inhibition at 5 ppm turned out to be 33%, the inhibition at 10 ppm amounted to 56%, the inhibition at 20 ppm amounted to 31% and the inhibition at 40 ppm is 53%. Besides, in the assay on Erysiphe polygoni [1], the pest or weed control at 150 ppm is 50%. The “Spore Germination Rating” value in the assay on Erysiphe polygoni [2] (1.0 ppm) is given as 1 (10-40). The “Spore Germination Rating” value in the assay with Erysiphe polygoni [2] (2.5 ppm) is on record as 0 (0-10). For the same compound, the “Spore Germination Rating” value in the assay with Erysiphe polygoni [2] (10 ppm) is given as 0 (0-10). Also, the “Spore Germination Rating” value in the assay with Erysiphe polygoni [2] (40 ppm) is 1 (10-40).

On to `Cc1ccc(Cl)c(Oc2nsnc(Cl)c2=O)c1` [Compound 56, 3-chloro-5-[(2-chloro-5-methyl)phenoxy]-4H--1,2,6-thiadiazin-4-one], for which the inhibition at 5 ppm in the assay on Rhizoctonia solani came out at 33%. For the same compound, the inhibition at 10 ppm in the assay on Rhizoctonia solani was found to be 78%. Moreover, the inhibition at 20 ppm in the assay with Rhizoctonia solani amounted to 100%. Also, the inhibition at 40 ppm in the assay on Rhizoctonia solani worked out at 100%. For the same compound, in the assay on Erysiphe polygoni [1], the pest or weed control at 150 ppm was 0%. The “Spore Germination Rating” value is on record as 4 (80-100) in the assay with Erysiphe polygoni [2] (1.0 ppm), 2 (40-60) with Erysiphe polygoni [2] (2.5 ppm), 0 (0-10) in the assay on Erysiphe polygoni [2] (10 ppm) and 0 (0-10) in the assay on Erysiphe polygoni [2] (40 ppm).

Turning to `Cc1ccc(Oc2nsnc(Cl)c2=O)c(Br)c1` [Compound 57, 3-[(2-bromo-4-methyl)-phenoxy]-5-chloro-4H--1,2,6-thiadiazin-4-one], in the assay with Rhizoctonia solani, the inhibition at 5 ppm was determined as 53%, the inhibition at 10 ppm is 69%, the inhibition at 20 ppm was 80% and the inhibition at 40 ppm amounted to 78%. In the assay with Erysiphe polygoni [1], the pest or weed control at 150 ppm came out at 100%. In addition, the “Spore Germination Rating” value in the assay on Erysiphe polygoni [2] (1.0 ppm) was 4 (80-100). For the same compound, the “Spore Germination Rating” value with Erysiphe polygoni [2] (2.5 ppm) was 0 (0-10). Further, in the assay on Erysiphe polygoni [2] (10 ppm), the “Spore Germination Rating” value was 0 (0-10). Further, the “Spore Germination Rating” value in the assay on Erysiphe polygoni [2] (40 ppm) is 0 (0-10).

Turning to `Cc1cc(Cl)c(Oc2nsnc(Cl)c2=O)cc1C` [Compound 58, 3-chloro-5-[(2-chloro-4,5-dimethyl)phenoxy]-4H--1,2,6-thiadiazin-4-one], in the assay with Rhizoctonia solani, the inhibition at 5 ppm was found to be 56%, the inhibition at 10 ppm was 58%, the inhibition at 20 ppm turned out to be 53% and the inhibition at 40 ppm was determined as 64%. In addition, the pest or weed control at 150 ppm in the assay on Erysiphe polygoni [1] came to 50%. Further, in the assay on Erysiphe polygoni [2] (1.0 ppm), the “Spore Germination Rating” value is 4 (80-100). For the same compound, in the assay on Erysiphe polygoni [2] (2.5 ppm), the “Spore Germination Rating” value was 0 (0-10). Moreover, the “Spore Germination Rating” value with Erysiphe polygoni [2] (10 ppm) is reported as 0 (0-10). For the same compound, the “Spore Germination Rating” value in the assay on Erysiphe polygoni [2] (40 ppm) is listed as 0 (0-10).

Regarding `COc1cc(Oc2nsnc(Cl)c2=O)cc(OC)c1C(C)=O` [Compound 61, 3-[(4-acetyl-3,5-dimethoxy)-phenoxy]-5-chloro-4H--1,2,6-thiadiazin-4-one], the inhibition at 5 ppm in the assay with Rhizoctonia solani came to 0%. The inhibition at 10 ppm with Rhizoctonia solani is 13%. For the same compound, the inhibition at 20 ppm in the assay on Rhizoctonia solani was 33%. Moreover, the inhibition at 40 ppm in the assay with Rhizoctonia solani stood at 47%. In addition, the pest or weed control at 150 ppm in the assay on Erysiphe polygoni [1] stood at 0%. The “Spore Germination Rating” value in the assay with Erysiphe polygoni [2] (1.0 ppm) is 1 (10-40); in the assay on Erysiphe polygoni [2] (2.5 ppm), 1 (10-40); in the assay with Erysiphe polygoni [2] (10 ppm) it was 1 (10-40); in the assay on Erysiphe polygoni [2] (40 ppm), 0 (0-10).
